19 molecules from PubChem BioAssay (NCI) can be followed below.

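Tested at 5 concentrations; 48 h exposure; 96-well plates; endpoints linearly interpolated, else capped at highest concentration. At the GI50, growth is halved. Definition used: TGI = concentration required for complete inhibition of growth.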

A word on the GI50: it is the concentration giving 50% growth inhibition. By TGI is commonly meant the concentration at which net growth stops. Lower therefore signals more potent growth arrest.

For one assay, the system named is MDA-MB-435. Briefly: DTP human tumour cell line panel, 48 h.
With `CCN1CCN(c2nc(C)cc(N(CCNc3ccnc4cc(Cl)ccc34)Cc3ccc4c(c3)OCO4)n2)CC1`, the GI50 was 1.7 µM and the TGI was 3.25 µM.

The molecule `COc1c(Cl)c(=O)oc2ccc(Cl)cc12` came in with a TGI greater than 100 µM.

As for `NS(=O)(=O)c1cc(Br)c(N=Nc2ccc(O)c3ncccc23)c(Br)c1`, the TGI was greater than 100 µM.

`Cc1cc(I)cc(CN(C)CCCN2CCCCC2)c1O`: the GI50 is 15 µM and the TGI came to 33.4 µM.

As for `COc1cc(NCc2ccc3oc(=O)c(-c4ccccc4)nc3c2)cc(OC)c1OC`, the TGI is greater than 10 µM.

As for `CN(C(=O)c1ccc(C(F)(F)F)cc1)c1ccc(Oc2ccc3c(c2)cc(C(=O)N2CCN(Cc4ccc(OC(F)F)cc4)CC2)n3C)nc1`, the GI50 is 3.73 µM and the TGI is greater than 100 µM.

Turning to `O=S(=O)(CCn1c(Sc2ccccc2)c(Sc2ccccc2)c2ccccc21)c1ccccc1`, the TGI is greater than 100 µM.

Take `O=c1[nH]c(Nc2nc3ccccc3[nH]2)nc(O)c1-c1ccccc1`: the TGI is greater than 100 µM.

Consider `Cc1ccccc1S(=O)(=O)OC1NS(=O)(=O)c2ccccc21` (stereo not drawn), for which the TGI was greater than 100 µM.

Turning to `O=C(Nc1ccc(Cl)cc1)c1cccc(NC2=C(Cl)C(=O)N(Cc3ccccc3)C2=O)c1`, the GI50 was 23.9 µM and the TGI was greater than 100 µM.

As for `Nc1ncnc2n[nH]c(Nc3ccc(F)cc3)c12`, the GI50 was 19.7 µM and the TGI turned out to be 49.6 µM.

For the molecule `CCN(CC)c1ccc(-c2cc(-c3cc(OC)c(OC)c(OC)c3)nc(N3CCOCC3)c2C#N)cc1`, the GI50 was 1.32 µM and the TGI worked out at 13.7 µM.

On to `CC(=O)OC1=CC(n2cc(F)c(=O)[nH]c2=O)OC(C)C1=O` (stereo not drawn), for which the TGI is greater than 100 µM.

With `CC(=O)[C@@]12O[C@@H]1CC1C3CCC4=CC(O)CCC4(C)C3CCC12C` (stereo partly drawn), the GI50 was greater than 100 µM and the TGI is greater than 100 µM.

The molecule `NC1(C(=O)OCc2ccccc2)CCCC1` had a TGI of 41.2 µM.

Turning to `Cc1cc(/C=C/c2ccc3cc(N(C)C)ccc3[n+]2C)c(C)n1-c1ccccc1`, the GI50 was 0.177 µM and the TGI was determined as 0.8 µM.

Turning to `Cn1cnc([N+](=O)[O-])c1S(=O)(=O)Oc1cccc2ccccc12`, the GI50 is 2.31 µM and the TGI came out at 7.21 µM.

As for `CCCC(=O)OC1CC(n2cc(F)c(=O)[nH]c2=O)OC1COP(=O)(OCC(Cl)(Cl)Cl)OCC(Cl)(Cl)Cl` (stereo not drawn), the TGI is greater than 100 µM.

With `COc1cc(OC)cc(-c2cc(=O)c3c(OC)c(OC)c(OC)c(OC)c3o2)c1`, the TGI was greater than 100 µM.

The subject of the next assay is SK-MEL-2 melanoma. In words: DTP human tumour cell line panel, 48 h.
Consider `CCN1CCN(c2nc(C)cc(N(CCNc3ccnc4cc(Cl)ccc34)Cc3ccc4c(c3)OCO4)n2)CC1`, for which the GI50 was 1.98 µM and the TGI was found to be 3.85 µM.

`COc1c(Cl)c(=O)oc2ccc(Cl)cc12`: the concentration for total growth inhibition (TGI) was greater than 100 µM.

On to `NS(=O)(=O)c1cc(Br)c(N=Nc2ccc(O)c3ncccc23)c(Br)c1`, for which the TGI is greater than 100 µM.

Take `Cc1cc(I)cc(CN(C)CCCN2CCCCC2)c1O`: the GI50 is 18.4 µM and the TGI turned out to be 37 µM.

Take `COc1cc(NCc2ccc3oc(=O)c(-c4ccccc4)nc3c2)cc(OC)c1OC`: the TGI is greater than 10 µM.

Consider `CN(C(=O)c1ccc(C(F)(F)F)cc1)c1ccc(Oc2ccc3c(c2)cc(C(=O)N2CCN(Cc4ccc(OC(F)F)cc4)CC2)n3C)nc1`, for which the GI50 is 11.9 µM and the TGI is greater than 100 µM.

`O=S(=O)(CCn1c(Sc2ccccc2)c(Sc2ccccc2)c2ccccc21)c1ccccc1`: the TGI is greater than 100 µM.

Consider `O=c1[nH]c(Nc2nc3ccccc3[nH]2)nc(O)c1-c1ccccc1`, for which the TGI was greater than 100 µM.

Regarding `Cc1ccccc1S(=O)(=O)OC1NS(=O)(=O)c2ccccc21` (stereo not drawn), the TGI is greater than 100 µM.

With `O=C(Nc1ccc(Cl)cc1)c1cccc(NC2=C(Cl)C(=O)N(Cc3ccccc3)C2=O)c1`, the GI50 was 14.9 µM and the TGI worked out at 41.5 µM.

`Nc1ncnc2n[nH]c(Nc3ccc(F)cc3)c12`: the GI50 was 14 µM and the TGI is greater than 100 µM.

As for `CCN(CC)c1ccc(-c2cc(-c3cc(OC)c(OC)c(OC)c3)nc(N3CCOCC3)c2C#N)cc1`, the GI50 is 3.15 µM and the TGI is greater than 26.2 µM.

On to `CC(=O)OC1=CC(n2cc(F)c(=O)[nH]c2=O)OC(C)C1=O` (stereo not drawn), for which the TGI is greater than 100 µM.

`CC(=O)[C@@]12O[C@@H]1CC1C3CCC4=CC(O)CCC4(C)C3CCC12C` (stereo partly drawn): the GI50 is greater than 100 µM and the TGI was greater than 100 µM.

The molecule `NC1(C(=O)OCc2ccccc2)CCCC1` registered a TGI of 40.2 µM. This counts as double-digit micromolar.

For `Cc1cc(/C=C/c2ccc3cc(N(C)C)ccc3[n+]2C)c(C)n1-c1ccccc1`, the GI50 is 0.27 µM and the TGI came out at 1.06 µM.

In the case of `Cn1cnc([N+](=O)[O-])c1S(=O)(=O)Oc1cccc2ccccc12`, the GI50 was 4.42 µM and the TGI turned out to be 20 µM.

As to `CCCC(=O)OC1CC(n2cc(F)c(=O)[nH]c2=O)OC1COP(=O)(OCC(Cl)(Cl)Cl)OCC(Cl)(Cl)Cl` (stereo not drawn), the TGI is greater than 100 µM.

In the case of `COc1cc(OC)cc(-c2cc(=O)c3c(OC)c(OC)c(OC)c(OC)c3o2)c1`, the total growth inhibition concentration (TGI) came to 55.1 µM.

The next assay has as its system OVCAR-4 ovarian. Briefly: DTP human tumour cell line panel, 48 h.
For `CCN1CCN(c2nc(C)cc(N(CCNc3ccnc4cc(Cl)ccc34)Cc3ccc4c(c3)OCO4)n2)CC1`, the GI50 was 2.58 µM and the TGI worked out at 11.4 µM.

`COc1c(Cl)c(=O)oc2ccc(Cl)cc12` gave a TGI greater than 100 µM.

Molecule `NS(=O)(=O)c1cc(Br)c(N=Nc2ccc(O)c3ncccc23)c(Br)c1` had a TGI greater than 100 µM.

Consider `Cc1cc(I)cc(CN(C)CCCN2CCCCC2)c1O`, for which the GI50 is 32.7 µM and the TGI is greater than 100 µM.

`COc1cc(NCc2ccc3oc(=O)c(-c4ccccc4)nc3c2)cc(OC)c1OC` yielded a TGI greater than 10 µM.

On to `CN(C(=O)c1ccc(C(F)(F)F)cc1)c1ccc(Oc2ccc3c(c2)cc(C(=O)N2CCN(Cc4ccc(OC(F)F)cc4)CC2)n3C)nc1`, for which the GI50 is less than 0.01 µM and the TGI is greater than 49.7 µM.

For `O=S(=O)(CCn1c(Sc2ccccc2)c(Sc2ccccc2)c2ccccc21)c1ccccc1`, the TGI is greater than 100 µM.

The molecule `O=c1[nH]c(Nc2nc3ccccc3[nH]2)nc(O)c1-c1ccccc1` returned a TGI greater than 100 µM.

With `Cc1ccccc1S(=O)(=O)OC1NS(=O)(=O)c2ccccc21` (stereo not drawn), the TGI was greater than 100 µM.
